Experimental data as given in the NIST ThermoML archive (doi:10.1021/je900596d).

Conditions: for mass density: Vibrating tube method

FC(F)=C(F)C(F)(F)F [hexafluoropropene]
Conditions | mass density [kg/m3] | vapor or sublimation pressure [kPa]
343.18 K, 7163.7 kPa, Liquid | 1166.5 | –
343.18 K, 7207.1 kPa, Liquid | 1167.25 | –
343.18 K, 7249.5 kPa, Liquid | 1168.08 | –
343.18 K, 7293.3 kPa, Liquid | 1168.78 | –
343.18 K, 7354.7 kPa, Liquid | 1169.81 | –
343.18 K, 7477.5 kPa, Liquid | 1171.63 | –
343.18 K, 7539.3 kPa, Liquid | 1172.69 | –
343.18 K, 7580 kPa, Liquid | 1173.37 | –
343.18 K, 7621.6 kPa, Liquid | 1174.18 | –
343.18 K, 7663.4 kPa, Liquid | 1174.54 | –
343.18 K, 7709.7 kPa, Liquid | 1175.39 | –
343.18 K, 7753.6 kPa, Liquid | 1176.17 | –
343.18 K, 7797.5 kPa, Liquid | 1176.76 | –
343.18 K, 7837.6 kPa, Liquid | 1177.31 | –
343.18 K, 7898.4 kPa, Liquid | 1178.24 | –
343.18 K, 7941.1 kPa, Liquid | 1178.97 | –
343.18 K, 7984.5 kPa, Liquid | 1179.58 | –
343.18 K, 8043.1 kPa, Liquid | 1180.22 | –
343.18 K, 8085.6 kPa, Liquid | 1180.85 | –
343.18 K, 8131.1 kPa, Liquid | 1181.65 | –
343.18 K, 8209.9 kPa, Liquid | 1183.02 | –
343.18 K, 8291.5 kPa, Liquid | 1184.04 | –
343.18 K, 8335.5 kPa, Liquid | 1184.74 | –
343.18 K, 8378 kPa, Liquid | 1185.42 | –
343.18 K, 8419.6 kPa, Liquid | 1185.91 | –
343.18 K, 8464.8 kPa, Liquid | 1186.51 | –
343.18 K, 8525.6 kPa, Liquid | 1187.33 | –
343.18 K, 8587 kPa, Liquid | 1188.25 | –
343.18 K, 8628.5 kPa, Liquid | 1188.86 | –
343.18 K, 8670.7 kPa, Liquid | 1189.47 | –
343.18 K, 8714.6 kPa, Liquid | 1189.91 | –
343.18 K, 8776.2 kPa, Liquid | 1190.93 | –
343.18 K, 8818.3 kPa, Liquid | 1191.58 | –
343.18 K, 8881.2 kPa, Liquid | 1192.4 | –
343.18 K, 8941.7 kPa, Liquid | 1193.53 | –
343.18 K, 9000.5 kPa, Liquid | 1194.02 | –
343.18 K, 9064 kPa, Liquid | 1194.66 | –
343.18 K, 9123.4 kPa, Liquid | 1195.43 | –
343.18 K, 9184.1 kPa, Liquid | 1196.23 | –
343.18 K, 9262 kPa, Liquid | 1197.29 | –
343.18 K, 9304.6 kPa, Liquid | 1197.74 | –
343.18 K, 9350.1 kPa, Liquid | 1198.56 | –
343.18 K, 9408.2 kPa, Liquid | 1199.15 | –
343.18 K, 9449.8 kPa, Liquid | 1199.74 | –
343.18 K, 9509.5 kPa, Liquid | 1200.56 | –
343.18 K, 9567.5 kPa, Liquid | 1201.28 | –
343.18 K, 9607.9 kPa, Liquid | 1202.1 | –
343.18 K, 9667.5 kPa, Liquid | 1202.79 | –
343.18 K, 9708 kPa, Liquid | 1203.31 | –
343.18 K, 9749.9 kPa, Liquid | 1203.76 | –
343.18 K, 9796.9 kPa, Liquid | 1204.53 | –
343.18 K, 9839 kPa, Liquid | 1205.06 | –
343.18 K, 9920.9 kPa, Liquid | 1205.9 | –
343.18 K, 9962.6 kPa, Liquid | 1206.45 | –
343.21 K, Liquid, Closed cell (Static) method | – | 2243.8
343.26 K, 3.2 kPa, Fluid (supercritical or subcritical phases) | 0.22 | –
343.26 K, 5.9 kPa, Fluid (supercritical or subcritical phases) | 0.35 | –
343.26 K, 8.6 kPa, Fluid (supercritical or subcritical phases) | 0.55 | –
343.26 K, 10.3 kPa, Fluid (supercritical or subcritical phases) | 0.63 | –
343.26 K, 12.1 kPa, Fluid (supercritical or subcritical phases) | 0.73 | –
343.26 K, 14.8 kPa, Fluid (supercritical or subcritical phases) | 0.81 | –
343.26 K, 16.4 kPa, Fluid (supercritical or subcritical phases) | 1 | –
343.26 K, 19.5 kPa, Fluid (supercritical or subcritical phases) | 1.07 | –
343.26 K, 22.4 kPa, Fluid (supercritical or subcritical phases) | 1.29 | –
343.26 K, 24.3 kPa, Fluid (supercritical or subcritical phases) | 1.34 | –
343.26 K, 25.9 kPa, Fluid (supercritical or subcritical phases) | 1.39 | –
343.26 K, 29 kPa, Fluid (supercritical or subcritical phases) | 1.68 | –
343.26 K, 32 kPa, Fluid (supercritical or subcritical phases) | 1.75 | –
343.26 K, 33.6 kPa, Fluid (supercritical or subcritical phases) | 1.83 | –
343.26 K, 36.6 kPa, Fluid (supercritical or subcritical phases) | 1.97 | –
343.26 K, 38.2 kPa, Fluid (supercritical or subcritical phases) | 2.07 | –
343.26 K, 39.9 kPa, Fluid (supercritical or subcritical phases) | 2.11 | –
343.26 K, 43.2 kPa, Fluid (supercritical or subcritical phases) | 2.31 | –
343.26 K, 45.9 kPa, Fluid (supercritical or subcritical phases) | 2.54 | –
343.26 K, 50.6 kPa, Fluid (supercritical or subcritical phases) | 2.72 | –
343.26 K, 55.4 kPa, Fluid (supercritical or subcritical phases) | 3 | –
343.26 K, 59.9 kPa, Fluid (supercritical or subcritical phases) | 3.25 | –
343.26 K, 63.1 kPa, Fluid (supercritical or subcritical phases) | 3.46 | –
343.26 K, 66.1 kPa, Fluid (supercritical or subcritical phases) | 3.7 | –
343.26 K, 70.8 kPa, Fluid (supercritical or subcritical phases) | 3.87 | –
343.26 K, 72.4 kPa, Fluid (supercritical or subcritical phases) | 3.95 | –
343.26 K, 74.2 kPa, Fluid (supercritical or subcritical phases) | 4.04 | –
343.26 K, 77.2 kPa, Fluid (supercritical or subcritical phases) | 4.21 | –
343.26 K, 80.1 kPa, Fluid (supercritical or subcritical phases) | 4.42 | –
343.26 K, 81.8 kPa, Fluid (supercritical or subcritical phases) | 4.49 | –
343.26 K, 83.4 kPa, Fluid (supercritical or subcritical phases) | 4.54 | –
343.26 K, 86.6 kPa, Fluid (supercritical or subcritical phases) | 4.74 | –
343.26 K, 89.9 kPa, Fluid (supercritical or subcritical phases) | 4.91 | –
343.26 K, 94.8 kPa, Fluid (supercritical or subcritical phases) | 5.2 | –
343.26 K, 97.7 kPa, Fluid (supercritical or subcritical phases) | 5.42 | –
343.26 K, 104 kPa, Fluid (supercritical or subcritical phases) | 5.73 | –
343.26 K, 110.1 kPa, Fluid (supercritical or subcritical phases) | 6.1 | –
343.26 K, 116.3 kPa, Fluid (supercritical or subcritical phases) | 6.4 | –
343.26 K, 122.7 kPa, Fluid (supercritical or subcritical phases) | 6.8 | –
343.26 K, 129.3 kPa, Fluid (supercritical or subcritical phases) | 7.14 | –
343.26 K, 135.5 kPa, Fluid (supercritical or subcritical phases) | 7.51 | –
343.26 K, 141.7 kPa, Fluid (supercritical or subcritical phases) | 7.92 | –
343.26 K, 148.2 kPa, Fluid (supercritical or subcritical phases) | 8.27 | –
343.26 K, 154.4 kPa, Fluid (supercritical or subcritical phases) | 8.6 | –
343.26 K, 160.9 kPa, Fluid (supercritical or subcritical phases) | 8.89 | –
343.26 K, 170.1 kPa, Fluid (supercritical or subcritical phases) | 9.39 | –
343.26 K, 176.8 kPa, Fluid (supercritical or subcritical phases) | 9.8 | –
343.26 K, 183.2 kPa, Fluid (supercritical or subcritical phases) | 10.15 | –
343.26 K, 189.6 kPa, Fluid (supercritical or subcritical phases) | 10.49 | –
343.26 K, 200.5 kPa, Fluid (supercritical or subcritical phases) | 11.16 | –
343.26 K, 213.3 kPa, Fluid (supercritical or subcritical phases) | 11.94 | –
343.26 K, 225.8 kPa, Fluid (supercritical or subcritical phases) | 12.7 | –
343.26 K, 237.9 kPa, Fluid (supercritical or subcritical phases) | 13.34 | –
343.26 K, 250.5 kPa, Fluid (supercritical or subcritical phases) | 14.05 | –
343.26 K, 262.7 kPa, Fluid (supercritical or subcritical phases) | 14.74 | –
343.26 K, 274 kPa, Fluid (supercritical or subcritical phases) | 15.32 | –
343.26 K, 286 kPa, Fluid (supercritical or subcritical phases) | 16.09 | –
343.26 K, 298.3 kPa, Fluid (supercritical or subcritical phases) | 16.8 | –
343.26 K, 311.2 kPa, Fluid (supercritical or subcritical phases) | 17.55 | –
343.26 K, 323.1 kPa, Fluid (supercritical or subcritical phases) | 18.22 | –
343.26 K, 335.5 kPa, Fluid (supercritical or subcritical phases) | 18.98 | –
343.26 K, 347.7 kPa, Fluid (supercritical or subcritical phases) | 19.66 | –
343.26 K, 360 kPa, Fluid (supercritical or subcritical phases) | 20.46 | –
343.26 K, 372.1 kPa, Fluid (supercritical or subcritical phases) | 21.09 | –
343.26 K, 384.1 kPa, Fluid (supercritical or subcritical phases) | 21.84 | –
343.26 K, 396.5 kPa, Fluid (supercritical or subcritical phases) | 22.56 | –
343.26 K, 408.2 kPa, Fluid (supercritical or subcritical phases) | 23.28 | –
343.26 K, 420.5 kPa, Fluid (supercritical or subcritical phases) | 24.04 | –
343.26 K, 431.3 kPa, Fluid (supercritical or subcritical phases) | 24.66 | –
343.26 K, 443.3 kPa, Fluid (supercritical or subcritical phases) | 25.35 | –
343.26 K, 455.1 kPa, Fluid (supercritical or subcritical phases) | 26 | –
343.26 K, 466.9 kPa, Fluid (supercritical or subcritical phases) | 26.77 | –
343.26 K, 478.8 kPa, Fluid (supercritical or subcritical phases) | 27.49 | –
343.26 K, 490.9 kPa, Fluid (supercritical or subcritical phases) | 28.19 | –
343.26 K, 507.3 kPa, Fluid (supercritical or subcritical phases) | 29.18 | –
343.26 K, 521.6 kPa, Fluid (supercritical or subcritical phases) | 30.11 | –
343.26 K, 535.5 kPa, Fluid (supercritical or subcritical phases) | 30.9 | –
343.26 K, 548.6 kPa, Fluid (supercritical or subcritical phases) | 31.65 | –
343.26 K, 561.3 kPa, Fluid (supercritical or subcritical phases) | 32.53 | –
